Measurements published in US20210323908A1, “PROCESS FOR PRODUCING TCA CYCLE INTERMEDIATE CONJUGATES” (IMBRIA PHARMACEUTICALS, INC., priority 2020, published 2021).

Assays:
Assay type in all cases: physicochemical
[1] = Solubility of the Type A crystal polymorph (stated as a conclusion, no method given); details: solid crystal polymorph identified as Type A
[2] = Stability of the Type A crystal polymorph (stated as a conclusion, no method given); details: solid crystal polymorph identified as Type A
[3] = Decomposition of the product in hot water, observed during work-up; details: in water at 70-80° C.
Protocol: The reaction mixtures were filtered to remove solvents. The wet cake was charged to a reactor. […] 6 kg of MS001 Silica Thiol was added to the filtrate at about 60-70° C., stirred for 1 hour, and filtered through a pad of fresh Celite.
A total of 20 kg of a compound of Formula (X) was made from 56.6 kg of a compound of Formula (IV), with 98.0% and a 73.5% yield. The yield of the manufacture is consistent to the Lab batch.

solubility of the solid crystal polymorph Type A [1]: soluble
stability of the solid crystal polymorph Type A [2]: highly stable
stability in water at elevated temperature [3]: could be decomposed in water
SMILES: N[C@@H](COC(=O)CCC(=O)O)C(=O)O [Formula (X)]
